Literature values as cited in publication PMC12308805, “Ultrahigh-Throughput Virtual Screening Strategies against PPI Targets: A Case Study of STAT Inhibitors” (Journal of Chemical Information and Modeling, 2025).
Read-outs that look alike come from different tables or passages of the source. Square brackets hold non-standard residues; d marks the D form. Ends that are not written are not given here. Peptide text beside a SMILES is read from it. * marks the point of attachment. pY = N[C@@H](Cc1ccc(OP(=O)(O)O)cc1)C(=O)O; Isobutyryl = CC(C)C(=O)*; Bz = O=C(c1ccccc1)*

Test system: STAT3
Settings: cited from earlier work; for Type: retrospective screening set for STAT3 SH2 domain (PDB 6QHD), ref DUD-E
[1] = sheet 6QHD_actives_decoys, decoys are presumed inactives, not tested
[2] = sheet 6QHD_actives_decoys, decoys generated with DUD-E and presumed inactive, not tested
[3] = sheet 6QHD_actives_decoys, known STAT3 actives of the retrospective screening set, ref ChEMBL / literature

Compound | Type [1] | Type [2] | other results
CC/C=C\C/C=C\C/C=C\CCCCCCCC(=O)OC[C@@H](O)CO[C@H]1O[C@@H](CO[C@H]2O[C@@H](CO)[C@H](O)[C@@H](O)[C@@H]2O)[C@@H](O)[C@@H](O)[C@@H]1O [Decoy758] | Inactive (Decoy) |  | 
CCSc1ccccc1NC(=O)CSc1n[nH]c(N/N=C/c2cc([N+](=O)[O-])ccc2O)n1 [Decoy446] |  | Inactive (Decoy) | 
COc1ccccc1NS(=O)(=O)c1cccc(C(=O)NNC(=O)c2cc3ccccc3[nH]c2=O)c1 [Decoy693] |  |  | Type (sheet 6QHD_actives_decoys, […]): Inactive (Decoy)
COC(=O)c1ccc(NC(=O)CSc2nc3ccc(NC(=O)CSc4nnc(-c5ccc(N)cc5)n4C)cc3s2)cc1 [Decoy435] |  | Inactive (Decoy) | 
CC(C)(CC(=O)O)CC(=O)N1Cc2nc[nH]c2C[C@H]1c1nc(-c2ccc(F)c(Cl)c2)no1 [Decoy417] |  | Inactive (Decoy) | 
CC(C)C[C@H](NC(=O)[C@H](Cc1ccc(OP(=O)(O)O)cc1)NC(=O)c1ccccc1)C(=O)N1CCC[C@H]1C(=O)N[C@@H](CCC(N)=O)C(=O)N[C@H](C(N)=O)[C@@H](C)O [CHEMBL425571] (Bz-[pY]LPQT-NH2) |  |  | Type (known STAT3 active) [3]: Active
CCOC(=O)[C@@](NC(=O)c1cccc(Cl)c1)(Nc1ccc(S(=O)(=O)Nc2cc(C)nc(C)n2)cc1)C(F)(F)F [Decoy740] | Inactive (Decoy) |  | 
CC(=O)OC[C@@H]1O[C@@H](Oc2cc(O)cc(O)c2C(=O)CCc2ccc([N+](=O)[O-])cc2)[C@@H](OC(C)=O)[C@H](OC(C)=O)[C@H]1OC(C)=O [Decoy880] | Inactive (Decoy) |  | 
Cc1ccc(Nc2cc(C)nc3cc(C(F)(F)F)ccc23)c(Br)c1 [Decoy563] |  | Inactive (Decoy) | 
COc1cc(/N=N/c2ccc(N)cc2)c(C)cc1/N=N/c1c(S(=O)(=O)O)cc2ccc(N)cc2c1O [Decoy635] |  | Inactive (Decoy) | 
CC(C)C[C@H](NC(=O)/C=C/c1ccc(OP(=O)(O)O)cc1)C(=O)N1C[C@H]2C[C@H]2[C@H]1C(=O)N[C@@H](CCC(N)=O)[C@@H](C)O [CHEMBL583725] |  |  | Type (known STAT3 active) [3]: Active
C[C@@H]1O[C@H](O[C@@H]2CC[C@]3(C)[C@H](CC[C@@H]4[C@@H]3CC[C@@]3(C)[C@@H](C5=CC(=O)OC5)CC[C@]43O)C2)C[C@H](O)[C@@H]1O[C@@H]1C[C@H](O)[C@H](O[C@H]2C[C@@H](O)[C@H](O)[C@@H](C)O2)[C@H](C)O1 [Decoy470] |  | Inactive (Decoy) | 
COCCCNC(=O)C(=O)N/N=C/c1cc(I)c(OCC(=O)Nc2cccc(C(F)(F)F)c2)c(OC)c1 [Decoy573] |  | Inactive (Decoy) | 
CC(=O)OC[C@H]1O[C@@H](Oc2cc(O)cc(O)c2C(=O)CCc2ccc([N+](=O)[O-])cc2)[C@@H](OC(C)=O)[C@H](OC(C)=O)[C@H]1OC(C)=O [Decoy881] | Inactive (Decoy) |  | 
CN(C)S(=O)(=O)c1cccc(C(=O)NNC(=O)c2cn(-c3ccccc3)nc2-c2cccnc2)c1 [Decoy350] |  | Inactive (Decoy) | 
CC(=O)O[C@@H]1[C@@H](O)[C@@H](O[C@@H](/C=N\N2CCOCC2)[C@@H](CO)O[C@H](O)/C=N/N2CCOCC2)O[C@@H](CO)[C@H]1O [Decoy660] |  | Inactive (Decoy) | 
Cc1nnc(/N=C(\O)CSc2nnc(NN=C(Cc3ccccc3)Cc3ccccc3)n2N)s1 [Decoy811] | Inactive (Decoy) |  | 
CCCCn1c(N)c(N(CCOC)C(=O)CSc2nc3ccccc3s2)c(=O)[nH]c1=O [Decoy723] |  | Inactive (Decoy) | 
CC(=O)N[C@@H](Cc1ccc(OP(=O)(O)O)cc1)C(=O)N[C@@H](CC(C)C)C(=O)N1CCC[C@H]1C(=O)N[C@@H](CCC(N)=O)C(=O)N[C@H](C(=O)N[C@H](C(N)=O)C(C)C)[C@H](C)O [CHEMBL502473] |  |  | Type (known STAT3 active): Active
CCCCCO[C@@H]1[C@H]2OC(C)(C)O[C@H]2O[C@@H]1[C@@H](O)CO[C@@H]1O[C@H](COC(C)=O)[C@@H](OC(C)=O)[C@H](OC(C)=O)[C@H]1NC(C)=O [Decoy443] |  | Inactive (Decoy) | 
COc1cc(/C=N/NC(=O)CCCCC(=O)N/N=C/c2cc(Br)c(O)c(OC)c2)cc(Br)c1O [Decoy433] |  | Inactive (Decoy) | 
NCCCCCCNc1nc2c(N)ncnc2n1[C@H]1O[C@@H](CO[P@](=O)(O)O[P@](=O)(O)OP(=O)(O)O)[C@@H](O)[C@H]1O [Decoy384] |  | Inactive (Decoy) | 
CC1(C)CC[C@]2(C(=O)O[C@@H]3O[C@H](CO)[C@@H](O)[C@H](O)[C@H]3O)[C@H](O)C[C@]3(C)C(=CC[C@@H]4[C@@]5(C)CC[C@H](O[C@@H]6OC[C@H](O)[C@H](O)[C@H]6O)[C@@](C)(CO)[C@@H]5CC[C@]43C)[C@@H]2C1 [Decoy535] |  | Inactive (Decoy) | 
WAGGDASGE [Decoy910] | Inactive (Decoy) |  | 
COc1ccc([C@H](O[C@@H]2O[C@H](CO)[C@@H](O)[C@H](O)[C@H]2O)[C@@H](CO)Oc2ccc(/C=C/CO)cc2OC)cc1O [Decoy765] | Inactive (Decoy) |  | 
CC1(C)[C@]2(C(=O)NCCN(CCNC(=O)[C@]34CC[C@](C)(C(=O)C3)C4(C)C)CCNC(=O)[C@]34CC[C@](C)(C(=O)C3)C4(C)C)CC[C@@]1(C)C(=O)C2 [Decoy839] | Inactive (Decoy) |  | 
CCOc1cc([C@@H]2C(C(=O)c3ccc4c(c3)OCCO4)=C(O)C(=O)N2CCCN2CCOCC2)ccc1O [Decoy848] | Inactive (Decoy) |  | 

Compound | Type [1] | Type [2] | other results
COc1cc([N+](=O)[O-])ccc1NC(=S)Nc1ccc(S(=O)(=O)Nc2ccc(Cl)nn2)cc1 [Decoy332] |  |  | Type (sheet 6QHD_actives_decoys, […]): Inactive (Decoy)
CCC/C=C/[C@@H](C(=O)NCS(=O)(=O)c1ccc(C)cc1)N(CCC)C(=O)c1cc([N+](=O)[O-])ccc1O [Decoy570] |  | Inactive (Decoy) | 
CCOC(=O)c1[nH]c(C)c(C(=O)C2=C(O)C(=O)N(CCN(CC)CC)[C@H]2c2ccc(OC)c(OC)c2)c1C [Decoy455] |  | Inactive (Decoy) | 
COc1cc([N+](=O)[O-])cc(/C=N/NC(=O)CSc2nnc(-c3cccc(Br)c3)n2C)c1O [Decoy639] |  | Inactive (Decoy) | 
Cc1cc(NS(=O)(=O)c2ccc(NC(=O)CCC(=O)Nc3ccc(S(=O)(=O)Nc4cc(C)on4)cc3)cc2)no1 [Decoy702] |  | Inactive (Decoy) | 
CCCCC(=O)Nc1ccc(NC(=S)NC(=O)c2ccc(OCC)c([N+](=O)[O-])c2)cc1OC [Decoy467] |  | Inactive (Decoy) | 
OC[C@@]1(O)CO[C@H](OC[C@H]2O[C@@H](O[C@H](CCCCc3ccc(O)cc3)CCc3ccc(O)cc3)[C@H](O[C@H]3OC[C@](O)(CO)[C@H]3O)[C@@H](O)[C@@H]2O)[C@@H]1O [Decoy685] |  | Inactive (Decoy) | 
O=c1cc(-c2ccc(O)c(O)c2)oc2cc(O[C@@H]3O[C@H](CO[C@@H]4OC[C@@H](O)[C@@H](O)[C@H]4O)[C@@H](O)[C@H](O)[C@H]3O)cc(O)c12 [Decoy795] | Inactive (Decoy) |  | 
Cc1ccc(S(=O)(=O)CNC(=O)[C@@H](c2ccc3c(c2)OCO3)N(C)C(=O)c2cccc(O)c2O)cc1 [Decoy614] |  | Inactive (Decoy) | 
COc1ccc(S(=O)(=O)N(CC(=O)Nc2ccccc2C(=O)NCc2ccco2)c2ccc(F)cc2)cc1OC [Decoy480] |  | Inactive (Decoy) | 
CCOc1ccc(-n2c(Cc3cc(=O)[nH]c(=O)[nH]3)nnc2SCC(=O)Nc2ccc(F)cc2)cc1 [Decoy796] | Inactive (Decoy) |  | 
CC(C)C[C@H](NC(=O)/C=C/c1ccc(OP(=O)(O)O)cc1)C(=O)N1C[C@H]2C[C@H]2[C@H]1C(=O)N[C@H](C)CCC(N)=O [CHEMBL576784] |  |  | Type (known STAT3 active): Active
C/C(=C(/CCO)SS/C(CCO)=C(\C)N(C=O)Cc1cnc(C)nc1N)N(C=O)Cc1cnc(C)nc1N [Decoy780] | Inactive (Decoy) |  | 
CC(C)C[C@H](NC(=O)/C=C/c1ccc(OP(=O)(O)O)cc1)C(=O)N1C[C@H]2C[C@H]2[C@H]1C(=O)N[C@@H](CCC(N)=O)COCc1ccccc1 [CHEMBL583727] |  |  | Type (known STAT3 active): Active
COc1cc([C@@H]2OC[C@@]3(O)[C@@H](c4ccc(O[C@@H]5O[C@H](CO)[C@@H](O)[C@H](O)[C@H]5O)c(OC)c4)OC[C@@]23O)ccc1O [Decoy396] |  | Inactive (Decoy) | 
Cc1cccn2c(=O)c(/C=C3\SC(=S)N(CCCCCC(=O)O)C3=O)c(NCCCn3ccnc3)nc12 [Decoy451] |  | Inactive (Decoy) | 
Cc1ccc(S(=O)(=O)n2cc(/C=N\N=C3/NC(=O)[C@H](CC(=O)O)S3)c3ccccc32)cc1 [Decoy683] |  | Inactive (Decoy) | 
CNC(=O)[C@H](CC(C)C)NC(=O)[C@H](Cc1c[nH]cn1)NC(=O)[C@@H](C)NC(=O)[C@@H](NC(=O)[C@H](C)NC(=O)[C@H](Cc1c[nH]c2ccccc12)NC(=O)[C@H](Cc1cnc[nH]1)NC(=O)C(C)C)C(C)C [Decoy626] (Isobutyryl-HWAV[dA]HL-NHMe) |  | Inactive (Decoy) | 
N[C@@H](CCC(=O)N[C@@H](CSCCN(CCSC[C@H](NC(=O)CC[C@H](N)C(=O)O)C(=O)NCC(=O)O)[P@](N)(=O)O)C(=O)NCC(=O)O)C(=O)O [Decoy879] | Inactive (Decoy) |  | 
COc1ccc(S(=O)(=O)Nc2ccc(S(=O)(=O)Nc3nc(C)cc(C)n3)cc2)cc1F [Decoy560] |  |  | Type (sheet 6QHD_actives_decoys, […]): Inactive (Decoy)
CC1=C/C(=C(\c2cc(C)c(O)c(CN(C)CC(=O)O)c2)c2ccccc2S(=O)(=O)O)C=C(CN(C)CC(=O)O)C1=O [Decoy767] | Inactive (Decoy) |  | 
CCOC(=O)c1sc(NC(=O)CSc2n[nH]c(N/N=C/c3ccc(C)cc3)n2)c(C#N)c1C [Decoy916] | Inactive (Decoy) |  | 
COc1cc(NC(=O)CSc2n[nH]c(N/N=C/c3cc([N+](=O)[O-])ccc3O)n2)ccc1Cl [Decoy500] |  | Inactive (Decoy) | 
O=C(O)CN(CC(=O)O)C[C@@H](Cc1ccc(NCCCCCN2C(=O)C=CC2=O)cc1)N(CC(=O)O)CC(=O)O [Decoy882] | Inactive (Decoy) |  | 
COc1ccc(CNc2nc(NCc3ccc(OC)c(OC)c3)n(C(=O)c3ccc(C(C)(C)C)cc3)n2)cc1OC [Decoy921] | Inactive (Decoy) |  | 
CCCCN/N=C(C(=O)OC)/C(C(=O)OC)=C(\O)C(=O)Nc1nc2ccc([N+](=O)[O-])cc2s1 [Decoy925] | Inactive (Decoy) |  | 
CC[C@@H](c1nnnn1C(C)(C)CC)N(Cc1ccc(OC)cc1)Cc1cc2c(C)ccc(C)c2[nH]c1=O [Decoy452] |  | Inactive (Decoy) | 
